Among the data in patent US20240124408A1 (Sanofi, priority 2020, published 2024) are EC50 values, retold here.

One assay has as its target T1, pig TRPM8 (Sus scrofa, UniProt F1SM15).
T1 construct: expressed in transfected cells; host or cells: CHO (pcDNA5/FRT/TO vector; hygromycin B and blasticidin selection)
Nature of the assay: In vitro pig TRPM8 fluorescence calcium flux assay (recombinant CHO cells, Fluo4-AM, FDSS6000). It counts as cell-based. The following applies: recombinant CHO cells expressing pig TRPM8; menthol-related EC50, normalized to 100 μM menthol. The protocol: (§1) In Vitro Pig and Human TRPM8 Fluorescence Calcium Flux Assays
(§2) For functional expression of TRPM8, the full-length cDNA encoding human (NM_024080) and pig (XM_001927892.1) TRPM8 sequences were subcloned into p658 and pcDNA5/FRT/TO mammalian expression vectors, respectively. Engineered recombinant CHO cell lines expressing human or pig TRPM8 were generated. Culture media was Ham-F12 with 10% FCS for both lines, and for the pig cell line only 400 μg/ml hygromycin B and 30 μg/mL blasticidin were added as selection antibiotics (all reagents were obtained from Invitrogen, Fisher Scientific). Cells were grown in culture flasks up to 80% confluence where they were harvested using accutase (Sigma, MO, USA) to detach the cells by enzymatic dissociation and either seeded directly into assay plates or cryopreserved for future use.
(§3) For calcium flux assays, cells were plated into clear base poly-D-lysine coated 384-well plates (BD Biosciences, NJ USA) at a density of 15,000 cells per well in appropriate culture medium and grown overnight. The following day, all medium was removed then the cells were incubated with 2 μM of Fluo4-AM Dye (Molecular Probes) prepared in complete HBSS assay buffer containing 20 mM HEPES, 0.1% BSA, and 2.5 mM probenecid at room temperature for one hour. Following incubation, plates were inserted into a FDSS6000 instrument (Hamamatsu, Photonics, Japan) instrument, where cells were challenged with compounds of the formula (at varying concentrations) and intracellular calcium was measured kinetically for 3 min after addition.
(§4) This protocol allowed the determination of an EC50 value, from the sixteen-point dose response data, for each compound of the formula tested. Maximal fluorescence intensity achieved upon addition of 100 μM menthol (stock solution prepared in ethanol from solid, Sigma-Aldrich) was exported from the FDSS and further analyzed using IDBS XLFit 5. Data were normalized to the average 100 μM menthol response (maximum control wells) included in each plate. The dose response curves from the average of wells for each data point were analyzed by using nonlinear regression of sigmoidal dose response (formula 205). Finally, the (menthol-related) EC50 values (Half maximal effective concentration) were calculated with the best-fit dose curve determined by IDBS XLFit 5 software.
A general note: Calcium flux is commonly read through the fluorescence of an indicator in the cells.

Another assay has as its target T2, human TRPM8 (Homo sapiens, UniProt Q7Z2W7).
T2 construct: expressed in transfected cells; host or cells: CHO (p658 mammalian expression vector)
Briefly: In vitro human TRPM8 fluorescence calcium flux assay (recombinant CHO cells, Fluo4-AM, FDSS6000). It counts as cell-based. The settings on record: recombinant CHO cells expressing human TRPM8; menthol-related EC50, normalized to 100 μM menthol. How it is done: as §1, §2, §3, §4

T1 sequence (F1SM15 1-1104): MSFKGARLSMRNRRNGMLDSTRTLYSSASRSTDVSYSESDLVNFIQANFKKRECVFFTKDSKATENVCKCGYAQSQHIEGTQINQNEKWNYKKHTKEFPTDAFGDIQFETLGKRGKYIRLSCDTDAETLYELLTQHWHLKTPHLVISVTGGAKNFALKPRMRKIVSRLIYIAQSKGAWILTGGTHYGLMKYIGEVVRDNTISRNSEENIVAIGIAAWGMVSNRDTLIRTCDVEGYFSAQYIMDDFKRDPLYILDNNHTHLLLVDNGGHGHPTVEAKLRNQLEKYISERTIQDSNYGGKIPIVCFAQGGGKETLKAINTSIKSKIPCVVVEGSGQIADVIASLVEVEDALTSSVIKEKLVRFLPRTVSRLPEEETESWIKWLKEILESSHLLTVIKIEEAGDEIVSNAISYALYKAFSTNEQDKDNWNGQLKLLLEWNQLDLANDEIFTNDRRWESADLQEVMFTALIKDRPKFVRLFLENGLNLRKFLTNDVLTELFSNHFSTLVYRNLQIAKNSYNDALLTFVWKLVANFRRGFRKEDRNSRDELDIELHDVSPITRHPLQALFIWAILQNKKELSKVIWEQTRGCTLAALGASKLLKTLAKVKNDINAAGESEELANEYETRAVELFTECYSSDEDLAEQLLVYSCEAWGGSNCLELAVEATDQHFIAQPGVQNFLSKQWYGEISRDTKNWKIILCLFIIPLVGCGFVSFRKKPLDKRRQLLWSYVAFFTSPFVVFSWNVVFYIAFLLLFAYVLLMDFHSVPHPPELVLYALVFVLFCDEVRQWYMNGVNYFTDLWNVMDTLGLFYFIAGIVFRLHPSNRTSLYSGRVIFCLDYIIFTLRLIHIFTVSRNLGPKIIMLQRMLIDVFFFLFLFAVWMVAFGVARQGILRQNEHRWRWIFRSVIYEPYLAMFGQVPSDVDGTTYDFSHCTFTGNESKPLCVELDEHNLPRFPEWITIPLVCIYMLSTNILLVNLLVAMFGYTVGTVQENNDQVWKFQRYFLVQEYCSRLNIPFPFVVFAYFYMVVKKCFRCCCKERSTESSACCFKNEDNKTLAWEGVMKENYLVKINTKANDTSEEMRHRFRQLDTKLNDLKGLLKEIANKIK
T2 sequence (Q7Z2W7 whole entry): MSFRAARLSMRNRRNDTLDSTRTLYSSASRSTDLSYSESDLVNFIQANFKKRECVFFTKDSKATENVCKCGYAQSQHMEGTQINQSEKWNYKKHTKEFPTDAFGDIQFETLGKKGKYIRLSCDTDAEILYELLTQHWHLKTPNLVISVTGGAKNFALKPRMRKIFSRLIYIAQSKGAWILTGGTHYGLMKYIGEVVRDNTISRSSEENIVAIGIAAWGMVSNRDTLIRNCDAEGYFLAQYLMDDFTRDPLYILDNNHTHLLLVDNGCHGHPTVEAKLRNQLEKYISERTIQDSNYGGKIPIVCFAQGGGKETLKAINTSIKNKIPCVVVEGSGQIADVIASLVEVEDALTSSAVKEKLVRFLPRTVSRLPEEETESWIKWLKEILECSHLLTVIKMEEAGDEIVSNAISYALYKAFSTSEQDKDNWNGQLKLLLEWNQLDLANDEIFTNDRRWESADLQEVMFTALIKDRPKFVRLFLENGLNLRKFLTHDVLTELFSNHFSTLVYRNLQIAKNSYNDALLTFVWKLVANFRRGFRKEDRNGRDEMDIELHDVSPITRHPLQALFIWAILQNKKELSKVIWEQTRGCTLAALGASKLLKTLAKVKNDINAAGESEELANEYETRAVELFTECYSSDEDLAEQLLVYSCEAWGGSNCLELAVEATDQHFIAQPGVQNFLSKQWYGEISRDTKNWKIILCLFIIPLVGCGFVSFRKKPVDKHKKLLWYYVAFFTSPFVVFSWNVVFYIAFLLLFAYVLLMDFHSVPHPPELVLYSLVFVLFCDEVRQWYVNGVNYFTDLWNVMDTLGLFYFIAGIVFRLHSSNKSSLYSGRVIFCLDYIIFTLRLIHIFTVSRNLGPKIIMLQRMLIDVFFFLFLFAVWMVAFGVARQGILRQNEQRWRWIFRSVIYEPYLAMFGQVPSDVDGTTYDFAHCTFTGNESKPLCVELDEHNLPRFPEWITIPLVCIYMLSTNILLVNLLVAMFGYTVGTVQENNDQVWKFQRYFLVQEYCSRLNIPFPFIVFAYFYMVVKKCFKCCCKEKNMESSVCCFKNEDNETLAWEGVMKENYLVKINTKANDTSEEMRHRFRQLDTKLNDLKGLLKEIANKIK

Take `CC(C)[C@@H]1CC[C@@H](C)C[C@@]1(O)C(=O)NCC1OCCc2ccccc21` (single isomer, unassigned) [Example 98]: the EC50 on pig TRPM8 worked out at 0.0647 µM; on human TRPM8 it was 0.0528 µM.
The like results for `CC(C)[C@@H]1CC[C@@H](C)C[C@@]1(O)C(=O)NCC(=O)OCc1ccccc1` [Example 132, benzyl 2-[[(1S,2S,5R)-1-hydroxy-2-isopropyl-5-methyl-cyclohexanecarbonyl]amino]acetate] were, in that order, 0.0791 µM and 0.303 µM.
Turning to `CC(C)[C@@H]1CC[C@@H](C)C[C@@]1(O)C(=O)NCC(O)c1ccccc1F` (stereo partly drawn) [Example 157, (1S,2S,5R)-N-[2-(2-fluorophenyl)-2-hydroxy-ethyl]-1-hydroxy-2-isopropyl-5-methyl-cyclohexanecarboxamide], the values for the EC50 on pig TRPM8 and at human TRPM8 were 0.0047 µM and 0.0084 µM, respectively.
Turning to `CC(C)[C@@H]1CC[C@@H](C)C[C@@]1(O)C(=O)N[C@@H]1CCc2ccc(O)cc2C1` [Example 171, (1S,2S,5R)-1-hydroxy-N-[(2R)-7-hydroxytetralin-2-yl]-2-isopropyl-5-methyl-cyclohexanecarboxamide], the half-maximal effective concentration (EC50) came out at 0.0061 µM at pig TRPM8 and 0.0032 µM at human TRPM8.
As for `CC(C)[C@@H]1CC[C@@H](C)C[C@@]1(O)C(=O)NCC1(O)CCc2ccccc21` (single isomer, unassigned) [Example 176], the EC50 worked out at 0.0013 µM at pig TRPM8 and 0.0011 µM on human TRPM8.
The like results for `CC(C)[C@@H]1CC[C@@H](C)C[C@@]1(O)C(=O)NCC1OC(=O)c2ccccc21` (mixture of isomers) [Example 17, (1S,2S,5R)-1-hydroxy-2-isopropyl-5-methyl-N-(((1RS)-3-oxo-1,3-dihydroisobenzofuran-1-yl)methyl) cyclohexane-1-carboxamide] were, in that order, 0.191 µM and 0.41 µM.
`CC(C)[C@@H]1CC[C@@H](C)C[C@@]1(O)C(=O)NC1CCOC1=O` (stereo partly drawn) [Example 112, (1S,2S,5R)-1-hydroxy-2-isopropyl-5-methyl-N-(2-oxotetrahydrofuran-3-yl)cyclohexane-1-carboxamide]: the EC50 at pig TRPM8 came to 0.892 µM; on human TRPM8, 1.58 µM.
Regarding `CC(C)[C@@H]1CC[C@@H](C)C[C@@]1(O)C(=O)NCCc1ccc(O)c([N+](=O)[O-])c1` [Example 166, (1S,2S,5R)-1-hydroxy-N-[2-(4-hydroxy-3-nitro-phenyl)ethyl]-2-isopropyl-5-methyl-cyclohexanecarboxamide], the results for the EC50 on pig TRPM8 and on human TRPM8 were 0.0152 µM and 0.0166 µM, respectively.
In the same order, the values of `CC(C)[C@@H]1CC[C@@H](C)C[C@@]1(O)C(=O)NCCc1cc(O)ccc1Br` [Example 172, (1S,2S,5R)-N-[2-(2-bromo-5-hydroxy-phenyl)ethyl]-1-hydroxy-2-isopropyl-5-methyl-cyclohexanecarboxamide] are 0.019 µM and 0.0097 µM.
Regarding `COC(=O)CC(CNC(=O)[C@]1(O)C[C@H](C)CC[C@H]1C(C)C)c1ccccc1` (stereo partly drawn) [Example 65, methyl 4-((1S,2S,5R)-1-hydroxy-2-isopropyl-5-methylcyclohexane-1-carboxamido)-3-phenyl butanoate], the EC50 at pig TRPM8 came out at 0.729 µM; on human TRPM8, 0.353 µM.
Consider `COC[C@H](NC(=O)[C@]1(O)C[C@H](C)CC[C@H]1C(C)C)C(O)c1ccccc1` (stereo in doubt) [Example 122, (1S,2S,5R)-1-hydroxy-N-[(1S,2S)-2-hydroxy-1-(methoxymethyl)-2-phenyl-ethyl]-2-isopropyl-5-methyl-cyclohexanecarboxamide], for which the results for the EC50 on pig TRPM8 and at human TRPM8 were 0.749 µM and 7.51 µM, respectively.
As to `CC(C)[C@@H]1CC[C@@H](C)C[C@@]1(O)C(=O)NCc1c[nH]c2ccccc12` [Example 151], the EC50 turned out to be 0.126 µM on pig TRPM8 and 0.188 µM on human TRPM8.
Regarding `CC(C)[C@@H]1CC[C@@H](C)C[C@@]1(O)C(=O)NCC(=O)c1ccc(Cl)cc1Cl` [Example 137, (1S,2S,5R)-N-[2-(2,4-dichlorophenyl)-2-oxo-ethyl]-1-hydroxy-2-isopropyl-5-methyl-cyclohexanecarboxamide], the concentration giving a half-maximal response (EC50) came to 0.0416 µM at pig TRPM8 and 0.125 µM at human TRPM8.
As for `CC(C)[C@@H]1CC[C@@H](C)C[C@@]1(O)C(=O)NCC1OCCc2ccccc21` (single isomer, unassigned) [Example 97], the EC50 at pig TRPM8 was 0.0292 µM; at human TRPM8, 0.0111 µM.
As for `COc1ccc(CCNC(=O)[C@]2(O)C[C@H](C)CC[C@H]2C(C)C)cc1O` [Example 126, (1S,2S,5R)-1-hydroxy-N-[2-(3-hydroxy-4-methoxy-phenyl)ethyl]-2-isopropyl-5-methyl-cyclohexanecarboxamide], the values for the half-maximal effective concentration (EC50) at pig TRPM8 and at human TRPM8 were 0.0257 µM and 0.0925 µM, respectively.
Take `CC(C)[C@@H]1CC[C@@H](C)C[C@@]1(O)C(=O)NC1CCC(F)(F)CC1` [Example 147, (1S,2S,5R)-N-(4,4-difluorocyclohexyl)-1-hydroxy-2-isopropyl-5-methyl-cyclohexanecarboxamide]: the EC50 amounted to 0.901 µM on pig TRPM8 and 1.16 µM on human TRPM8.
With `CC(C)[C@@H]1CC[C@@H](C)C[C@@]1(O)C(=O)NCC1OC(=O)c2ccccc21` (mixture of isomers) [Example 18, (1S,2S,5R)-1-hydroxy-2-isopropyl-5-methyl-N-(((1RS)-3-oxo-1,3-dihydroisobenzofuran-1-yl)methyl) cyclohexane-1-carboxamide], the half-maximal effective concentration (EC50) at pig TRPM8 amounted to 0.242 µM; at human TRPM8 it was 0.757 µM.
Take `CC(C)[C@@H]1CC[C@@H](C)C[C@@]1(O)C(=O)NCC(=O)c1ccc(O)c(O)c1` [Example 100, (1S,2S,5R)—N-(2-(3,4-dihydroxyphenyl)-2-oxoethyl)-1-hydroxy-2-isopropyl-5-methylcyclohexane-1-carboxamide]: the concentration for a half-maximal effect (EC50) on pig TRPM8 was found to be 0.0029 µM; at human TRPM8 it was 0.0022 µM.
Regarding `CC(C)[C@@H]1CC[C@@H](C)C[C@@]1(O)C(=O)NCCc1cnccn1` [Example 131, (1S,2S,5R)-1-hydroxy-2-isopropyl-5-methyl-N-(2-pyrazin-2-ylethyl)cyclohexanecarboxamide], the EC50 at pig TRPM8 is 0.267 µM; at human TRPM8, 0.603 µM.
Take `CC(C)[C@@H]1CC[C@@H](C)C[C@@]1(O)C(=O)NCc1cccc(O)c1` [Example 165, (1S,2S,5R)-1-hydroxy-N-[(3-hydroxyphenyl)methyl]-2-isopropyl-5-methyl-cyclohexanecarboxamide]: the EC50 at pig TRPM8 came to 0.369 µM; at human TRPM8, 0.33 µM.
On to `CC(C)[C@@H]1CC[C@@H](C)C[C@@]1(O)C(=O)NCC(O)(c1ccccc1)C(F)(F)F` (single isomer, unassigned) [Example 82], for which the half-maximal effective concentration (EC50) came out at 0.486 µM on pig TRPM8 and 0.332 µM on human TRPM8.
The like results for `CC(C)[C@@H]1CC[C@@H](C)C[C@@]1(O)C(=O)NCC1(O)CCc2ccccc21` (single isomer, unassigned) [Example 175] were, in that order, 0.535 µM and 0.043 µM.
Take `Cc1cccc([C@@H](O)CNC(=O)[C@]2(O)C[C@H](C)CC[C@H]2C(C)C)c1` [Example 45, (1S,2S,5R)-1-hydroxy-N-((2R)-hydroxy-2-(m-tolyl)ethyl)-2-isopropyl-5-methylcyclohexane-1-carboxamide]: the half-maximal effective concentration (EC50) at pig TRPM8 was 0.0182 µM; on human TRPM8, 0.0485 µM.
Take `CC(C)[C@@H]1CC[C@@H](C)C[C@@]1(O)C(=O)NCC(NC(=O)[C@H](C)N)c1ccccc1` (single isomer, unassigned) [Example 181]: the EC50 on pig TRPM8 was determined as 0.0614 µM; at human TRPM8, 0.0225 µM.
Take `COCCOCCOCCOc1cccc(CCNC(=O)[C@]2(O)C[C@H](C)CC[C@H]2C(C)C)c1` [Example 185, (1S,2S,5R)-1-hydroxy-2-isopropyl-N-[2-[3-[2-[2-(2-methoxyethoxy)ethoxy]ethoxy]phenyl]ethyl]-5-methyl-cyclohexanecarboxamide]: the concentration for a half-maximal effect (EC50) at pig TRPM8 was 0.0681 µM; on human TRPM8 it was 0.11 µM.
With `Cc1cccc([C@H](O)CNC(=O)[C@]2(O)C[C@H](C)CC[C@H]2C(C)C)c1` [Example 46, (1S,2S,5R)-1-hydroxy-N-((2S)-hydroxy-2-(m-tolyl)ethyl)-2-isopropyl-5-methylcyclohexane-1-carboxamide], the EC50 at pig TRPM8 turned out to be 0.0046 µM; on human TRPM8, 0.0119 µM.
As for `COc1cc(CCNC(=O)[C@]2(O)C[C@H](C)CC[C@H]2C(C)C)cc(OC)c1` [Example 123, (1S,2S,5R)-N-[2-(3,5-dimethoxyphenyl)ethyl]-1-hydroxy-2-isopropyl-5-methyl-cyclohexanecarboxamide], the 50% effective concentration (EC50) at pig TRPM8 was 0.229 µM; at human TRPM8, 0.334 µM.

A word on the EC50: it is the concentration needed to bring the measured effect to its halfway point.
